{"source": "patent US11053235B2", "about": "“Substituted 1,4-dihydropyrimidines for the treatment of HBV infection or HBV-induced diseases” (Janssen Sciences Ireland Unlimited Company, priority 2018, dated 2021)", "key": {"[1]": {"tested_on": "HBV", "assay": "Anti-viral assay in HepG2.2.15 cells: HBV inhibitory activity (HBV DNA in culture medium by q-PCR)", "assay_type": "cell-based", "conditions": "Hepatitis B virus, HepG2.2.15, 144 h, HepG2.2.15 cells, 6 days treatment, HBV DNA in culture medium by q-PCR, highest concentration 10 uM; read-out: EC50", "text": "(§1) Example 2: Anti-Viral Assay in HepG2.2.15 Cells\n(§2) 1.1. Cell Line • HepG2.2.15 (the HepG2.2.15 cell line can be produced by transfection of the HepG2 cell line as described in Sells, Chen, and Acs 1987 (Proc. Natl. Acad. Sci. USA 84:1005-1009), and the HepG2 cell line is available from ATCC® under number HB-8065™). Reagents • DMEM/F12 (INVITROGEN-11330032) • FBS (GIBCO-10099-141) • Dimethyl sulfoxide(DMSO) (SIGMA-D2650) • Penicillin-streptomycin solution (HYCLONE-SV30010) • NEAA (INVITROGEN-1114050) • L-Glutamine (INVITROGEN-25030081) • Geneticin Selective Antibiotic (G418, 500 mg/ml) (INVITROGEN-10131027) • Trypsinase digestion solution (INVITROGEN-25300062) • CCK8 (BIOLOTE-35004) • QIAamp 96 DNA Blood Kit (12) (QIAGEN-51162) • FastStart Universal Probe Mast Mix (ROCHE-04914058001)\n(§3) 2.1. HBV Inhibitory Activity and Cytotoxicity Determination\n(§4) Seed the cell HepG2.2.15 cells into 96-well plate in 2% FBS culture medium at the density of 40,000 cells/well and 5,000 cells/well for HBV inhibitory activity and cytotoxicity determination, respectively. After seeding, incubate the cell plates at 37° C., 5% CO2 overnight. The next day, medium containing compounds is added to the cell to treat the cells for 6 days with medium refreshed once in the middle of the treatment. 8 dose points with 3 folds dilution of each compound were adopted and the highest concentration of the compounds is 10 uM and 100 uM for HBV inhibitory activity and cytotoxicity determination, respectively.\nThe HBV DAN change in the cell culture medium induced by the compounds is measured by q-PCR method. Briefly, the HBV DNA in the culture medium is extracted using QIAamp 96 DNA Blood Kit according to the manual and then quantified by q-PCR using the primers and probe in the table below.\n(§5) EC50 and CC50 values are calculated by the GRAPHPAD PRISM software."}, "[2]": {"assay": "Cytotoxicity determination in HepG2.2.15 cells (CCK-8)", "assay_type": "cell-based", "conditions": "human, 6 days treatment, CCK-8, highest concentration 100 uM", "text": "as §1, §2, §3, §4\nAfter 6 days of compounds treatment, add 20 μl CCK-8 reagents to each well of cytotoxicity assay plates, incubate the plate at 37° C., 5% CO2 for 2.5 h and measure the absorbance at 450 nm wavelength, at the same time read the absorbance at 630 nm wavelength as reference.\nas §5"}}}
{"smiles": "COC(=O)C1=C([C@H]2CC[C@H](c3nc(CC(=O)O)co3)CC2)NC(c2nccs2)=NC1c1ccc(F)cc1Cl", "note": "(single isomer, unassigned) [Compound I-17-A, (trans)-2-(2-(4-(6-(2-Chloro-4-fluorophenyl)-5-(methoxycarbonyl)-2-(thiazol-2-yl)-3,6-dihydropyrimidin-4-yl)cyclohexyl)oxazol-4-yl)acetic Acid]", "values": [{"measurement": "EC50", "setting": "[1]", "value": 0.014, "unit": "µM"}, {"measurement": "CC50 at 6 days", "setting": "[2]", "value": 25.7, "unit": "µM"}]}
{"smiles": "COC(=O)C1=C([C@H]2CC[C@H](c3nc(CC(=O)O)co3)CC2)NC(c2nccs2)=NC1c1ccc(F)cc1Br", "note": "(single isomer, unassigned) [Compound I-18-A, (trans)-2-(2-(4-(6-(2-Bromo-4-fluorophenyl)-5-(methoxycarbonyl)-2-(thiazol-2-yl)-3,6-dihydropyrimidin-4-yl)cyclohexyl)oxazol-4-yl)acetic Acid]", "values": [{"measurement": "EC50", "setting": "[1]", "value": 0.007, "unit": "µM"}, {"measurement": "CC50 at 6 days", "setting": "[2]", "value": 15.3, "unit": "µM"}]}
{"smiles": "COC(=O)C1=C([C@H]2CC[C@H](c3nc(CC(=O)O)co3)CC2)NC(c2nccs2)=NC1c1cccc(F)c1Br", "note": "(single isomer, unassigned) [Compound I-19-B]", "values": [{"measurement": "EC50", "setting": "[1]", "value": 0.036, "unit": "µM"}, {"measurement": "CC50 at 6 days", "setting": "[2]", "value": 15.2, "unit": "µM"}]}
{"smiles": "COC(=O)C1=C([C@H]2CC[C@H](c3nc(CC(=O)O)co3)CC2)NC(c2nccs2)=NC1c1cccc(F)c1Cl", "note": "(single isomer, unassigned) [Compound I-20-B, (trans)-2-(2-(4-(6-(2-Chloro-3-fluorophenyl)-5-(methoxycarbonyl)-2-(thiazol-2-yl)-3,6-dihydropyrimidin-4-yl)cyclohexyl)oxazol-4-yl)acetic Acid]", "values": [{"measurement": "EC50", "setting": "[1]", "value": 0.03, "unit": "µM"}, {"measurement": "CC50 at 6 days", "setting": "[2]", "value": 7.21, "unit": "µM"}]}
{"smiles": "COC(=O)C1=C([C@H]2CC[C@H](c3nc(CC(=O)O)co3)CC2)NC(c2nccs2)=NC1c1cccc(F)c1C", "note": "(single isomer, unassigned) [Compound I-21-B, (trans)-2-(2-(4-(6-(3-Fluoro-2-methylphenyl)-5-(methoxycarbonyl)-2-(thiazol-2-yl)-3,6-dihydropyrimidin-4-yl)cyclohexyl)oxazol-4-yl)acetic Acid]", "values": [{"measurement": "EC50", "setting": "[1]", "value": 0.057, "unit": "µM"}, {"measurement": "CC50 at 6 days", "setting": "[2]", "value": 8.04, "unit": "µM"}]}
{"smiles": "COC(=O)C1=C([C@H]2CC[C@H](c3nc(CC(=O)O)c(C)o3)CC2)NC(c2nccs2)=NC1c1ccc(F)c(F)c1Cl", "note": "(single isomer, unassigned) [Compound I-22-B, (trans)-2-(2-(4-(6-(2-Chloro-3,4-difluorophenyl)-5-(methoxycarbonyl)-2-(thiazol-2-yl)-3,6-dihydropyrimidin-4-yl)cyclohexyl)-5-methyloxazol-4-yl)acetic Acid]", "values": [{"measurement": "EC50", "setting": "[1]", "value": 0.015, "unit": "µM"}, {"measurement": "CC50 at 6 days", "setting": "[2]", "value": 7.68, "unit": "µM"}]}
{"smiles": "CCOC(=O)C1=C([C@H]2CC[C@H](c3nc(CC(=O)O)co3)CC2)NC(c2nccs2)=NC1c1ccc(F)c(F)c1Cl", "note": "(single isomer, unassigned) [Compound I-23-B, (trans)-2-(2-(4-(6-(2-Chloro-3,4-difluorophenyl)-5-(ethoxycarbonyl)-2-(thiazol-2-yl)-3,6-dihydropyrimidin-4-yl)cyclohexyl)oxazol-4-yl)acetic Acid]", "values": [{"measurement": "EC50", "setting": "[1]", "value": 0.013, "unit": "µM"}, {"measurement": "CC50 at 6 days", "setting": "[2]", "value": 5.48, "unit": "µM"}]}
{"smiles": "CCOC(=O)C1=C([C@H]2CC[C@H](c3nc(CCC(=O)O)co3)CC2)NC(c2nccs2)=NC1c1ccc(F)c(F)c1Cl", "note": "(single isomer, unassigned) [Compound I-24-A, (trans)-3-(2-(4-(6-(2-Chloro-3,4-difluorophenyl)-5-(ethoxycarbonyl)-2-(thiazol-2-yl)-3,6-dihydropyrimidin-4-yl)cyclohexyl)oxazol-4-yl)propanoic Acid]", "values": [{"measurement": "EC50", "setting": "[1]", "value": "< 0.0046", "unit": "µM"}, {"measurement": "CC50 at 6 days", "setting": "[2]", "value": 6.79, "unit": "µM"}]}
{"smiles": "COC(=O)C1=C([C@H]2CC[C@H](c3nc(CC(C)(C)C(=O)O)co3)CC2)NC(c2nccs2)=NC1c1ccc(F)c(F)c1Cl", "note": "(single isomer, unassigned) [Compound I-25-B, (trans)-3-(2-(4-(6-(2-Chloro-3,4-difluorophenyl)-5-(methoxycarbonyl)-2-(thiazol-2-yl)-3,6-dihydropyrimidin-4-yl)cyclohexyl)oxazol-4-yl)-2,2-dimethylpropanoic acid]", "values": [{"measurement": "EC50", "setting": "[1]", "value": 0.0061, "unit": "µM"}, {"measurement": "CC50 at 6 days", "setting": "[2]", "value": 7.9, "unit": "µM"}]}
{"smiles": "CCOC(=O)C1=C([C@H]2CC[C@H](c3ncc(C(=O)O)o3)CC2)NC(c2nccs2)=NC1c1ccc(F)c(F)c1Cl", "note": "(single isomer, unassigned) [Compound I-26-B, (trans)-2-(4-(6-(2-chloro-3,4-difluorophenyl)-5-(ethoxycarbonyl)-2-(thiazol-2-yl)-3,6-dihydropyrimidin-4-yl)cyclohexyl)oxazole-5-carboxylic Acid]", "values": [{"measurement": "EC50", "setting": "[1]", "value": 0.055, "unit": "µM"}, {"measurement": "CC50 at 6 days", "setting": "[2]", "value": 15.5, "unit": "µM"}]}
{"smiles": "CCOC(=O)C1=C([C@H]2CC[C@H](c3nc(C(C)(C)C(=O)O)co3)CC2)NC(c2nccs2)=NC1c1ccc(F)c(F)c1Cl", "note": "(single isomer, unassigned) [Compound I-27-B, (trans)-2-(2-(4-(6-(2-chloro-3,4-difluorophenyl)-5-(ethoxycarbonyl)-2-(thiazol-2-yl)-3,6-dihydropyrimidin-4-yl)cyclohexyl)oxazol-4-yl)-2-methylpropanoic Acid]", "values": [{"measurement": "EC50", "setting": "[1]", "value": 0.018, "unit": "µM"}, {"measurement": "CC50 at 6 days", "setting": "[2]", "value": 5.17, "unit": "µM"}]}
{"smiles": "CCOC(=O)C1=C([C@H]2CC[C@H](c3cnn(CC(=O)O)c3)CC2)NC(c2nccs2)=NC1c1ccc(F)c(F)c1Cl", "note": "(single isomer, unassigned) [Compound I-28-B, (trans)-2-(4-(4-(6-(2-chloro-3,4-difluorophenyl)-5-(ethoxycarbonyl)-2-(thiazol-2-yl)-3,6-dihydropyrimidin-4-yl)cyclohexyl)-1H-pyrazol-1-yl)acetic Acid]", "values": [{"measurement": "EC50", "setting": "[1]", "value": 0.033, "unit": "µM"}, {"measurement": "CC50 at 6 days", "setting": "[2]", "value": 5.28, "unit": "µM"}]}
{"smiles": "COC(=O)C1=C([C@H]2CC[C@H](c3cnn(CCC(=O)O)c3)CC2)NC(c2nccs2)=NC1c1ccc(F)cc1Cl", "note": "(single isomer, unassigned) [Compound I-29-C, (trans)-3-(4-(4-(6-(2-Chloro-4-fluorophenyl)-5-(methoxycarbonyl)-2-(thiazol-2-yl)-3,6-dihydropyrimidin-4-yl)cyclohexyl)-1H-pyrazol-1-yl)propanoic Acid]", "values": [{"measurement": "EC50", "setting": "[1]", "value": 0.01, "unit": "µM"}, {"measurement": "CC50 at 6 days", "setting": "[2]", "value": 11.2, "unit": "µM"}]}
{"smiles": "CCOC(=O)C1=C([C@H]2CC[C@H](c3cnn(C(C)(C)CC(=O)O)c3)CC2)NC(c2nccs2)=NC1c1ccc(F)c(F)c1Cl", "note": "(single isomer, unassigned) [Compound I-30-D]", "values": [{"measurement": "EC50", "setting": "[1]", "value": 0.026, "unit": "µM"}, {"measurement": "CC50 at 6 days", "setting": "[2]", "value": 1.16, "unit": "µM"}]}
{"smiles": "CCOC(=O)C1=C([C@H]2CC[C@H](c3cnn(CCC(=O)O)c3)CC2)NC(c2nccs2)=NC1c1ccc(F)c(F)c1Cl", "note": "(single isomer, unassigned) [Compound I-32-B, 3-(4-((trans)-4-(6-(2-Chloro-3,4-difluorophenyl)-5-(ethoxycarbonyl)-2-(thiazol-2-yl)-3,6-dihydropyrimidin-4-yl)cyclohexyl)-1H-pyrazol-1-yl)propanoic Acid]", "values": [{"measurement": "EC50", "setting": "[1]", "value": "< 0.0046", "unit": "µM"}, {"measurement": "CC50 at 6 days", "setting": "[2]", "value": 5.81, "unit": "µM"}]}
{"smiles": "CCOC(=O)C1=C([C@H]2CC[C@H](c3cn(CCC(=O)O)nc3C)CC2)NC(c2nccs2)=NC1c1ccc(F)c(F)c1Cl", "note": "(single isomer, unassigned) [Compound I-33-C, (trans)-3-(4-(4-(6-(2-Chloro-3,4-difluorophenyl)-5-(ethoxycarbonyl)-2-(thiazol-2-yl)-3,6-dihydropyrimidin-4-yl)cyclohexyl)-3-methyl-1H-pyrazol-1-yl)propanoic Acid]", "values": [{"measurement": "EC50", "setting": "[1]", "value": 0.0072, "unit": "µM"}, {"measurement": "CC50 at 6 days", "setting": "[2]", "value": 2.97, "unit": "µM"}]}
{"smiles": "CCOC(=O)C1=C([C@H]2CC[C@H](c3cc(C(=O)O)nn3C)CC2)NC(c2nccs2)=NC1c1ccc(F)c(F)c1Cl", "note": "(single isomer, unassigned) [Compound I-35-C, (trans)-5-(4-(6-(2-chloro-3,4-difluorophenyl)-5-(ethoxycarbonyl)-2-(thiazol-2-yl)-3,6-dihydropyrimidin-4-yl)cyclohexyl)-1-methyl-1H-pyrazole-3-carboxylic Acid]", "values": [{"measurement": "EC50", "setting": "[1]", "value": 0.063, "unit": "µM"}, {"measurement": "CC50 at 6 days", "setting": "[2]", "value": 7.16, "unit": "µM"}]}
{"smiles": "CCOC(=O)C1=C([C@H]2CC[C@H](c3cc(C(=O)O)n(C)n3)CC2)NC(c2nccs2)=NC1c1ccc(F)c(F)c1Cl", "note": "(single isomer, unassigned) [Compound I-36-B, (trans)-3-(4-(6-(2-Chloro-3,4-difluorophenyl)-5-(ethoxycarbonyl)-2-(thiazol-2-yl)-3,6-dihydropyrimidin-4-yl)cyclohexyl)-1-methyl-1H-pyrazole-5-carboxylic Acid]", "values": [{"measurement": "EC50", "setting": "[1]", "value": 0.0062, "unit": "µM"}, {"measurement": "CC50 at 6 days", "setting": "[2]", "value": 5.94, "unit": "µM"}]}
